Experimental data reported in patent publication US20220411380A1, “ACID ADDITION SALT OF RORy REGULATOR” (JIANGSU HENGRUI MEDICINE CO., LTD., priority 2019, published 2022).
Values belong to the compound of their own block, whether it stands above or below them.

Columns and labels:
Type in all cases: physicochemical
[1] = DVS (dynamic vapor sorption) characterization; conditions: for Crystalline form before and after DVS (XRPD comparison): 0-95% humidity change; for DVS weight change / Hygroscopicity: 25° C., 20.0% RH to 80.0% RH; for Hygroscopicity: DVS
Description: DVS refers to dynamic vapor sorption: The measurement was conducted with a Surface Measurement Systems advantage 2 at 25° C., starting from 50% humidity in humidity range of 0%-95% with a step size of 10%. The judging criterion was that the mass change of each gradient dM/dT is less than 0.002 and TMAX is less than 360 min in two circles.

[2] = Influencing factor study of crystalline form α of hydrochloride and crystalline form I of hydrobromide
Description: Sample of the crystalline form α of the hydrochloride and the crystalline form I of the hydrobromide of the compound of formula II were let stand open to examine the stability of the samples in conditions of illumination (4500 Lux), high temperature (40° C. and 60° C.) and high humidity (RH 75% and RH 92.5%) in a period of 30 days.

[3] = Long-term/accelerated stability study of crystalline form α of hydrochloride and crystalline form I of hydrobromide
Description: The crystalline form α of the hydrochloride of the compound of formula II was let stand in conditions of 25° C./60% RH and 40° C./75% RH to examine its stability.
The crystalline form I of the hydrobromide of the compound of formula II was let stand in conditions of 25° C./60% RH and 40° C./75% RH to examine its stability.

[4] = accelerated test condition, 70% humidity
[5] = extreme condition, 90% humidity
[6] = normal storage condition, 60% humidity/25° C.

DVS weight change [1]: 1.731%
Hygroscopicity [1]: slightly hygroscopic
Vapor sorption [1, 4]: about 1.809%
Vapor sorption [1, 5]: about 3.077%
Vapor sorption [1, 6]: about 1.438%
Compound: NC(=O)C[C@H](c1ccc(S(=O)(=O)CC2CC2)cc1)c1nc2cc(-c3ccccc3OC(F)F)c(Cl)cc2[nH]1.O=C(O)/C=C\C(=O)O
Crystalline form before and after DVS (XRPD comparison) [1]: crystalline form did not change during DVS

Chiral purity (%) ([2]; 40° C., 7 days): 99.293%
Color and appearance ([2]; 40° C., 7 days): White solid
Crystalline form ([2]; 40° C., 7 days): Not changed
Main peak purity (%) ([2]; 40° C., 7 days): 97.716%
Chiral purity (%) ([2]; 40° C., 14 days): 99.165%
Color and appearance ([2]; 40° C., 14 days): White solid
Crystalline form ([2]; 40° C., 14 days): Not changed
Main peak purity (%) ([2]; 40° C., 14 days): 97.727%
Bromide ion content (%) ([2]; 40° C., 30 days): 11.73%
Chiral purity (%) ([2]; 40° C., 30 days): 99.251%
Color and appearance ([2]; 40° C., 30 days): White solid
Crystalline form ([2]; 40° C., 30 days): Not changed
Main peak purity (%) ([2]; 40° C., 30 days): 97.644%
Chiral purity (%) ([2]; 60° C., 7 days): 99.299%
Color and appearance ([2]; 60° C., 7 days): White solid
Crystalline form ([2]; 60° C., 7 days): Not changed
Main peak purity (%) ([2]; 60° C., 7 days): 97.645%
Chiral purity (%) ([2]; 60° C., 14 days): 99.187%
Color and appearance ([2]; 60° C., 14 days): White solid
Crystalline form ([2]; 60° C., 14 days): Not changed
Main peak purity (%) ([2]; 60° C., 14 days): 97.671%
Bromide ion content (%) ([2]; 60° C., 30 days): 11.50%
Chiral purity (%) ([2]; 60° C., 30 days): 99.263%
Color and appearance ([2]; 60° C., 30 days): White solid
Crystalline form ([2]; 60° C., 30 days): Not changed
Main peak purity (%) ([2]; 60° C., 30 days): 97.630%
Chiral purity (%) ([2]; 75% RH, 7 days): 99.293%
Color and appearance ([2]; 75% RH, 7 days): White solid
Crystalline form ([2]; 75% RH, 7 days): Not changed
Main peak purity (%) ([2]; 75% RH, 7 days): 97.687%
Chiral purity (%) ([2]; 75% RH, 14 days): 99.179%
Color and appearance ([2]; 75% RH, 14 days): White solid
Crystalline form ([2]; 75% RH, 14 days): Not changed
Main peak purity (%) ([2]; 75% RH, 14 days): 97.705%
Bromide ion content (%) ([2]; 75% RH, 30 days): 11.73%
Chiral purity (%) ([2]; 75% RH, 30 days): 99.274%
Color and appearance ([2]; 75% RH, 30 days): White solid
Crystalline form ([2]; 75% RH, 30 days): Not changed
Main peak purity (%) ([2]; 75% RH, 30 days): 97.676%
Chiral purity (%) ([2]; 92.5% RH, 7 days): 99.294%
Color and appearance ([2]; 92.5% RH, 7 days): White solid
Crystalline form ([2]; 92.5% RH, 7 days): Not changed
Main peak purity (%) ([2]; 92.5% RH, 7 days): 97.706%
Chiral purity (%) ([2]; 92.5% RH, 14 days): 99.175%
Color and appearance ([2]; 92.5% RH, 14 days): White solid
Crystalline form ([2]; 92.5% RH, 14 days): Not changed
Main peak purity (%) ([2]; 92.5% RH, 14 days): 97.701%
Bromide ion content (%) ([2]; 92.5% RH, 30 days): 11.55%
Chiral purity (%) ([2]; 92.5% RH, 30 days): 99.268%
Color and appearance ([2]; 92.5% RH, 30 days): White solid
Crystalline form ([2]; 92.5% RH, 30 days): Not changed
Main peak purity (%) ([2]; 92.5% RH, 30 days): 97.653%
Chiral purity (%) ([2]; 4500 Lux, 7 days): 99.297%
Color and appearance ([2]; 4500 Lux, 7 days): White solid
Crystalline form ([2]; 4500 Lux, 7 days): Not changed
Main peak purity (%) ([2]; 4500 Lux, 7 days): 97.683%
Chiral purity (%) ([2]; 4500 Lux, 14 days): 99.152%
Color and appearance ([2]; 4500 Lux, 14 days): White solid
Crystalline form ([2]; 4500 Lux, 14 days): Not changed
Main peak purity (%) ([2]; 4500 Lux, 14 days): 97.660%
Bromide ion content (%) ([2]; 4500 Lux, 30 days): 11.18%
Chiral purity (%) ([2]; 4500 Lux, 30 days): 99.243%
Color and appearance ([2]; 4500 Lux, 30 days): White solid
Crystalline form ([2]; 4500 Lux, 30 days): Not changed
Main peak purity (%) ([2]; 4500 Lux, 30 days): 97.626%
Bromide ion content (%) ([2]; Initial, 0 days): 11.75%
Chiral purity (%) ([2]; Initial, 0 days): 99.298%
Color and appearance ([2]; Initial, 0 days): White solid
Crystalline form ([2]; Initial, 0 days): Crystalline
Main peak purity (%) ([2]; Initial, 0 days): 97.689%
Stability (conclusion of influencing factor study) ([2]; illumination, 40° C. and 60° C., high humidities of 75% and 92.5%): good physical and chemical stabilities
Chiral purity (%) ([3]; 25° C., 60% RH, Day 7): 99.297%
Color and appearance ([3]; 25° C., 60% RH, Day 7): White solid
Crystalline form ([3]; 25° C., 60% RH, Day 7): Not changed
Main peak purity (%) ([3]; 25° C., 60% RH, Day 7): 97.689%
Chiral purity (%) ([3]; 25° C., 60% RH, Day 14): 99.198%
Color and appearance ([3]; 25° C., 60% RH, Day 14): White solid
Crystalline form ([3]; 25° C., 60% RH, Day 14): Not changed
Main peak purity (%) ([3]; 25° C., 60% RH, Day 14): 97.697%
Bromide ion content (%) ([3]; 25° C., 60% RH, Month 1): 11.20%
Chiral purity (%) ([3]; 25° C., 60% RH, Month 1): 99.255%
Color and appearance ([3]; 25° C., 60% RH, Month 1): White solid
Crystalline form ([3]; 25° C., 60% RH, Month 1): Not changed
Main peak purity (%) ([3]; 25° C., 60% RH, Month 1): 97.649%
Bromide ion content (%) ([3]; 25° C., 60% RH, Month 2): 11.05%
Chiral purity (%) ([3]; 25° C., 60% RH, Month 2): 99.363%
Color and appearance ([3]; 25° C., 60% RH, Month 2): White solid
Crystalline form ([3]; 25° C., 60% RH, Month 2): Not changed
Main peak purity (%) ([3]; 25° C., 60% RH, Month 2): 97.661%
Chiral purity (%) ([3]; 25° C., 60% RH, Month 3): 99.283%
Color and appearance ([3]; 25° C., 60% RH, Month 3): White solid
Crystalline form ([3]; 25° C., 60% RH, Month 3): Not changed
Main peak purity (%) ([3]; 25° C., 60% RH, Month 3): 97.552%
Bromide ion content (%) ([3]; 25° C., 60% RH, Month 6): 11.82%
Chiral purity (%) ([3]; 25° C., 60% RH, Month 6): 99.228%
Color and appearance ([3]; 25° C., 60% RH, Month 6): White solid
Crystalline form ([3]; 25° C., 60% RH, Month 6): Not changed
Main peak purity (%) ([3]; 25° C., 60% RH, Month 6): 96.981%
Chiral purity (%) ([3]; 40° C., 75% RH, Day 7): 99.295%
Color and appearance ([3]; 40° C., 75% RH, Day 7): White solid
Crystalline form ([3]; 40° C., 75% RH, Day 7): Not changed
Main peak purity (%) ([3]; 40° C., 75% RH, Day 7): 97.661%
Chiral purity (%) ([3]; 40° C., 75% RH, Day 14): 99.174%
Color and appearance ([3]; 40° C., 75% RH, Day 14): White solid
Crystalline form ([3]; 40° C., 75% RH, Day 14): Not changed
Main peak purity (%) ([3]; 40° C., 75% RH, Day 14): 97.660%
Bromide ion content (%) ([3]; 40° C., 75% RH, Month 1): 11.49%
Chiral purity (%) ([3]; 40° C., 75% RH, Month 1): 99.262%
Color and appearance ([3]; 40° C., 75% RH, Month 1): White solid
Crystalline form ([3]; 40° C., 75% RH, Month 1): Not changed
Main peak purity (%) ([3]; 40° C., 75% RH, Month 1): 97.558%
Bromide ion content (%) ([3]; 40° C., 75% RH, Month 2): 10.93%
Chiral purity (%) ([3]; 40° C., 75% RH, Month 2): 99.328%
Color and appearance ([3]; 40° C., 75% RH, Month 2): White solid
Crystalline form ([3]; 40° C., 75% RH, Month 2): Not changed
Main peak purity (%) ([3]; 40° C., 75% RH, Month 2): 97.561%
Chiral purity (%) ([3]; 40° C., 75% RH, Month 3): 99.275%
Color and appearance ([3]; 40° C., 75% RH, Month 3): White solid
Crystalline form ([3]; 40° C., 75% RH, Month 3): Not changed
Main peak purity (%) ([3]; 40° C., 75% RH, Month 3): 97.259%
Bromide ion content (%) ([3]; 40° C., 75% RH, Month 6): 11.91%
Chiral purity (%) ([3]; 40° C., 75% RH, Month 6): 99.199%
Color and appearance ([3]; 40° C., 75% RH, Month 6): White solid
Crystalline form ([3]; 40° C., 75% RH, Month 6): Not changed
Main peak purity (%) ([3]; 40° C., 75% RH, Month 6): 96.412%
Bromide ion content (%) ([3]; Initial, 0): 11.75%
Chiral purity (%) ([3]; Initial, 0): 99.298%
Color and appearance ([3]; Initial, 0): White solid
Crystalline form ([3]; Initial, 0): Crystalline
Main peak purity (%) ([3]; Initial, 0): 97.689%
Stability (conclusion of long-term/accelerated study) ([3]; long term and acceleration, 6 months): good physical and chemical stability
DVS weight change [1]: 0.636%
Hygroscopicity [1]: slightly hygroscopic
Vapor sorption [1, 4]: about 0.702%
Vapor sorption [1, 5]: about 1.094%
Vapor sorption [1, 6]: about 0.589%
Compound: Br.NC(=O)C[C@H](c1ccc(S(=O)(=O)CC2CC2)cc1)c1nc2cc(-c3ccccc3OC(F)F)c(Cl)cc2[nH]1
Crystalline form before and after DVS (XRPD comparison) [1]: crystalline form did not change during DVS

Crystalline form before and after DVS (XRPD comparison) [1]: crystalline form changed during DVS
DVS weight change [1]: 1.235%
Hygroscopicity [1]: slightly hygroscopic
Vapor sorption [1, 4]: about 1.954%
Vapor sorption [1, 5]: about 2.534%
Vapor sorption [1, 6]: about 1.755%
Compound: Cl.NC(=O)C[C@H](c1ccc(S(=O)(=O)CC2CC2)cc1)c1nc2cc(-c3ccccc3OC(F)F)c(Cl)cc2[nH]1 [Crystalline form β of hydrochloride of compound of formula I]
